The target of this experiment is T1, Pendrin (Homo sapiens, UniProt O43511).
T1 sequence (O43511 whole entry): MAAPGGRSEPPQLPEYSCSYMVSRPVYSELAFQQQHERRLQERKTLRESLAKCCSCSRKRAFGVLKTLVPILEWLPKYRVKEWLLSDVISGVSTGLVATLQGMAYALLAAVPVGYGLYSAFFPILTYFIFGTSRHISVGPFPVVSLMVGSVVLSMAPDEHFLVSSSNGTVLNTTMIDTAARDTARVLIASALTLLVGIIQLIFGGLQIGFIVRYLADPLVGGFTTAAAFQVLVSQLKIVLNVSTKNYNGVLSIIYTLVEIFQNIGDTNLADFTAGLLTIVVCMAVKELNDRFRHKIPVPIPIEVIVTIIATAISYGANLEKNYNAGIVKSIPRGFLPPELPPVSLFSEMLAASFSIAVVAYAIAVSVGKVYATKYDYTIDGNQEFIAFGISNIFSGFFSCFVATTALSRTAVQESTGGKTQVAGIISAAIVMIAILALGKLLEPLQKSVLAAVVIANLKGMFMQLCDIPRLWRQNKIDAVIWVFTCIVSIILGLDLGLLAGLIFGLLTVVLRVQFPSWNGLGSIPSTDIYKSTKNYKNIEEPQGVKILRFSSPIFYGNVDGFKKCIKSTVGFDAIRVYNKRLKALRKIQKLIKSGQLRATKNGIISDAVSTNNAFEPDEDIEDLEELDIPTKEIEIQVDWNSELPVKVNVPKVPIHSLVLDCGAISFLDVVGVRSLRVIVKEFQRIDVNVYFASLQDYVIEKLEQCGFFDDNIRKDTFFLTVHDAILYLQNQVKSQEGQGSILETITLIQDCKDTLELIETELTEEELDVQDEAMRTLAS
The experiment in a line: Inhibition of Pendrin (unknown origin) transfected in rat FRT cells assessed as reduction in Cl-/I- ions exchange by YFP fluorescence quenching assay.

The term IC50 denotes the concentration at which inhibition is half-maximal. Turning to `Cc1oc2ccc(OCc3ccccc3Cl)cc2c1C(=O)O`, the IC50 worked out at 650 nM.

Values taken from BindingDB's records for PubMed 39642691 (University of California San Francisco).
